In patent publication EP4700027A1, “CRYSTALLINE FORM OF NITROGEN-CONTAINING TETRACYCLIC COMPOUND AND PREPARATION METHOD THEREFOR” (Jiangsu Hengrui Pharmaceuticals Co., Ltd., priority 2023, dated 2024):

Assays:
[1] = Dynamic vapor sorption (DVS) hygroscopicity testing; type: physicochemical
From the text: According to the description of hygroscopicity characteristics and the definitions of hygroscopic weight gains in "General Rule 9103, Guidelines for Hygroscopicity Trials for Pharmaceuticals" in the Chinese Pharmacopoeia, Volume IV, 2015 Edition, • deliquescent: sufficient water is absorbed to form a liquid; • extremely hygroscopic: the hygroscopic weight gain is not less than 15%; • hygroscopic: the hygroscopic weight gain is less than 15% but not less than 2%; • slightly hygroscopic: the hygroscopic weight gain is less than 2% but not less than 0.2%; nonhygroscopic or practically nonhygroscopic: the hygroscopic weight gain is less than 0.2%.
DVS refers to dynamic vapor sorption: The analysis was performed using SMS DVS Advantage; at 25 °C, the humidity was changed as follows: 50%-95%-0%-95%-50%, in steps of 10% (5% for the last step) (specific humidity ranges are shown in corresponding patterns, and those listed here were used in most cases); the criterion was dm/dt being not greater than 0.002%.

[2] = Influencing factor stability study on crystal forms (light, high temperature, high humidity, 30 days); type: physicochemical
[3] = Light exposure (4500 Lux), 7 days
[4] = Light exposure (4500 Lux), 14 days
[5] = Light exposure (4500 Lux), 30 days
[6] = Light exposure (4500 Lux), 5 days
[7] = Light exposure (4500 Lux), 10 days

C=CC(=O)N1CCN2C(=O)c3cc(F)c(-c4ccc(F)c5sc(N)c(C#N)c45)c4c(Cl)nn(c34)CC[C@H]2C1 [crystal form N]
about 3.00%: hygroscopic weight gain ([1]; normal storage conditions (25 °C and 60% RH))
98.9%: Purity (%) ([2]; 60 °C, 30 days)
99.1%: Purity (%) ([2]; 75% RH, 14 days) | Purity (%) ([2]; 75% RH, 30 days)
substantially overlapped: desorption process of the sample versus its adsorption process ([1]; humidity changing from 0% to 95% RH)
Did not change: Crystal form ([2]; 60 °C, 30 days) | Crystal form ([2]; 75% RH, 7 days) | Crystal form ([2]; 75% RH, 14 days) | Crystal form ([2]; 75% RH, 30 days)
Off-white solid: Color and state ([2]; 60 °C, 30 days) | Color and state ([2]; 75% RH, 7 days) | Color and state ([2]; 75% RH, 14 days) | Color and state ([2]; 75% RH, 30 days)
99.2%: Purity (%) ([2]; 75% RH, 7 days)
about 3.06%: hygroscopic weight gain ([1]; accelerated experimental conditions (70% RH))
did not change: crystal form re-identified after DVS testing ([1]; after DVS testing)
about 3.18%: hygroscopic weight gain ([1]; extreme conditions (90% RH))

C=CC(=O)N1CCN2C(=O)c3cc(F)c(-c4ccc(F)c5sc(N)c(C#N)c45)c4c(Cl)nn(c34)CC[C@H]2C1 [crystal form L]
Did not change: Crystal form ([2]; 40 °C, 7 days) | Crystal form ([2]; 40 °C, 14 days) | Crystal form ([2]; 40 °C, 30 days) | Crystal form ([2]; 60 °C, 7 days) | Crystal form ([2]; 60 °C, 14 days) | Crystal form ([2]; 60 °C, 30 days) | Crystal form ([2]; 75% RH, 7 days) | Crystal form ([2]; 75% RH, 14 days) | Crystal form ([2]; 75% RH, 30 days) | Crystal form ([2]; 92.5% RH, 7 days) | Crystal form ([2]; 92.5% RH, 14 days) | Crystal form ([2]; 92.5% RH, 30 days) | Crystal form [2, 3] | Crystal form [2, 4] | Crystal form [2, 5]
98.9%: Purity (%) ([2]; 40 °C, 30 days) | Purity (%) ([2]; 60 °C, 30 days)
98.3%: Purity (%) [2, 5]
98.2%: Purity (%) [2, 4]
98.6%: Purity (%) [2, 3]
99.1%: Purity (%) ([2]; 40 °C, 7 days) | Purity (%) ([2]; 60 °C, 7 days) | Purity (%) ([2]; 75% RH, 7 days) | Purity (%) ([2]; 75% RH, 14 days) | Purity (%) ([2]; 75% RH, 30 days) | Purity (%) ([2]; 92.5% RH, 7 days) | Purity (%) ([2]; 92.5% RH, 14 days) | Purity (%) ([2]; 92.5% RH, 30 days) | Purity (%) ([2]; Initial, 0 days)
Crystal form L: Crystal form ([2]; Initial, 0 days)
99.0%: Purity (%) ([2]; 40 °C, 14 days) | Purity (%) ([2]; 60 °C, 14 days)
Off-white solid: Color and state ([2]; 40 °C, 7 days) | Color and state ([2]; 40 °C, 14 days) | Color and state ([2]; 40 °C, 30 days) | Color and state ([2]; 60 °C, 7 days) | Color and state ([2]; 60 °C, 14 days) | Color and state ([2]; 60 °C, 30 days) | Color and state ([2]; 75% RH, 7 days) | Color and state ([2]; 75% RH, 14 days) | Color and state ([2]; 75% RH, 30 days) | Color and state ([2]; 92.5% RH, 7 days) | Color and state ([2]; 92.5% RH, 14 days) | Color and state ([2]; 92.5% RH, 30 days) | Color and state ([2]; Initial, 0 days) | Color and state [2, 3] | Color and state [2, 4] | Color and state [2, 5]

C=CC(=O)N1CCN2C(=O)c3cc(F)c(-c4ccc(F)c5sc(N)c(C#N)c45)c4c(Cl)nn(c34)CC[C@H]2C1 [crystal form H]
Off-white solid: Color and state ([2]; 40 °C, 7 days) | Color and state ([2]; 40 °C, 14 days) | Color and state ([2]; 40 °C, 30 days) | Color and state ([2]; 60 °C, 7 days) | Color and state ([2]; 60 °C, 14 days) | Color and state ([2]; 60 °C, 30 days) | Color and state ([2]; 75% RH, 7 days) | Color and state ([2]; 75% RH, 14 days) | Color and state ([2]; 75% RH, 30 days) | Color and state ([2]; 92.5% RH, 7 days) | Color and state ([2]; 92.5% RH, 14 days) | Color and state ([2]; 92.5% RH, 30 days) | Color and state ([2]; Initial, 0 days) | Color and state [2, 3] | Color and state [2, 4] | Color and state [2, 5]
96.8%: Purity (%) [2, 4]
Crystal form H: Crystal form ([2]; Initial, 0 days)
98.1%: Purity (%) ([2]; 40 °C, 14 days)
97.8%: Purity (%) [2, 3]
97.7%: Purity (%) ([2]; 40 °C, 30 days) | Purity (%) ([2]; 60 °C, 30 days)
94.0%: Purity (%) [2, 5]
Did not change: Crystal form ([2]; 40 °C, 7 days) | Crystal form ([2]; 40 °C, 14 days) | Crystal form ([2]; 40 °C, 30 days) | Crystal form ([2]; 60 °C, 7 days) | Crystal form ([2]; 60 °C, 14 days) | Crystal form ([2]; 60 °C, 30 days) | Crystal form ([2]; 75% RH, 7 days) | Crystal form ([2]; 75% RH, 14 days) | Crystal form ([2]; 75% RH, 30 days) | Crystal form ([2]; 92.5% RH, 7 days) | Crystal form ([2]; 92.5% RH, 14 days) | Crystal form ([2]; 92.5% RH, 30 days) | Crystal form [2, 3] | Crystal form [2, 4] | Crystal form [2, 5]
98.4%: Purity (%) ([2]; 75% RH, 7 days) | Purity (%) ([2]; 75% RH, 30 days)
98.3%: Purity (%) ([2]; 60 °C, 7 days) | Purity (%) ([2]; 75% RH, 14 days) | Purity (%) ([2]; 92.5% RH, 7 days) | Purity (%) ([2]; 92.5% RH, 14 days) | Purity (%) ([2]; 92.5% RH, 30 days) | Purity (%) ([2]; Initial, 0 days)
98.2%: Purity (%) ([2]; 40 °C, 7 days) | Purity (%) ([2]; 60 °C, 14 days)

C=CC(=O)N1CCN2C(=O)c3cc(F)c(-c4ccc(F)c5sc(N)c(C#N)c45)c4c(Cl)nn(c34)CC[C@H]2C1 [crystal form C]
98.2%: Purity (%) ([2]; Initial, 0 days)
98.1%: Purity (%) ([2]; 75% RH, 5 days) | Purity (%) ([2]; 75% RH, 10 days) | Purity (%) ([2]; 75% RH, 30 days) | Purity (%) ([2]; 92.5% RH, 5 days) | Purity (%) ([2]; 92.5% RH, 10 days) | Purity (%) ([2]; 92.5% RH, 30 days)
97.6%: Purity (%) ([2]; 40 °C, 10 days)
97.9%: Purity (%) ([2]; 60 °C, 10 days) | Purity (%) [2, 7]
Did not change: Crystal form ([2]; 40 °C, 5 days) | Crystal form ([2]; 40 °C, 10 days) | Crystal form ([2]; 40 °C, 30 days) | Crystal form ([2]; 60 °C, 5 days) | Crystal form ([2]; 60 °C, 10 days) | Crystal form ([2]; 60 °C, 30 days) | Crystal form ([2]; 75% RH, 5 days) | Crystal form ([2]; 75% RH, 10 days) | Crystal form ([2]; 75% RH, 30 days) | Crystal form ([2]; 92.5% RH, 5 days) | Crystal form ([2]; 92.5% RH, 10 days) | Crystal form ([2]; 92.5% RH, 30 days) | Crystal form [2, 6] | Crystal form [2, 7] | Crystal form [2, 5]
Off-white solid: Color and state ([2]; 40 °C, 5 days) | Color and state ([2]; 40 °C, 10 days) | Color and state ([2]; 40 °C, 30 days) | Color and state ([2]; 60 °C, 5 days) | Color and state ([2]; 60 °C, 10 days) | Color and state ([2]; 60 °C, 30 days) | Color and state ([2]; 75% RH, 5 days) | Color and state ([2]; 75% RH, 10 days) | Color and state ([2]; 75% RH, 30 days) | Color and state ([2]; 92.5% RH, 5 days) | Color and state ([2]; 92.5% RH, 10 days) | Color and state ([2]; 92.5% RH, 30 days) | Color and state ([2]; Initial, 0 days) | Color and state [2, 6] | Color and state [2, 7] | Color and state [2, 5]
97.2%: Purity (%) ([2]; 40 °C, 30 days)
Crystal form C: Crystal form ([2]; Initial, 0 days)
97.5%: Purity (%) ([2]; 60 °C, 30 days) | Purity (%) [2, 5]
98.0%: Purity (%) ([2]; 40 °C, 5 days) | Purity (%) ([2]; 60 °C, 5 days) | Purity (%) [2, 6]
